Measured values from patent publication US20060264419A1 (priority 2003, published 2006).

Molecular target: 5-HT2A receptors (Rattus norvegicus, UniProt P14842)
Experiment: in-vitro affinity to 5-HT2A receptors, displacement of [3H]ketanserine (Example A1)
Type: binding
Settings: read-out: HT2A IC50
Source text: The 5-HT2A receptors are exposed both to [^3H]ketanserine (a substance which is known for its affinity to the receptor) and also to the test compound. The decrease in the affinity of [^3H]ketanserine to the receptor is an indication of the affinity of the test substance to the 5-HT2A receptor.

5-HT2A receptors, sequence (P14842 whole entry): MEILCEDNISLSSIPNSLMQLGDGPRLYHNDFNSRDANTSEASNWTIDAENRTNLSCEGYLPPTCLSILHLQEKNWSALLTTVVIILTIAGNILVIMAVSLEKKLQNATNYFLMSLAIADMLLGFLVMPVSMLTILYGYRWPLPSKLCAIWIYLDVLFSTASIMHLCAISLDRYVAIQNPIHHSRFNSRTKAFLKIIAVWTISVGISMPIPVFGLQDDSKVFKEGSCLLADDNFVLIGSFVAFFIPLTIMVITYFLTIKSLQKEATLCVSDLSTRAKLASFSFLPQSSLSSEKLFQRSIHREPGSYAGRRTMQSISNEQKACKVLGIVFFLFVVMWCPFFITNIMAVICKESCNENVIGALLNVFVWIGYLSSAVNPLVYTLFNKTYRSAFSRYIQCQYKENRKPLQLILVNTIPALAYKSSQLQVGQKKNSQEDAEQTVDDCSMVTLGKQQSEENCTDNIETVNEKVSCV

Structure (SMILES)	IC50
O=C(CN1CCN(Cc2cnn(-c3ccc(-c4ccccc4)cc3)c2-c2ccccc2F)CC1)N1CCCC1 [Example 985, 2-{4-[1-Biphenyl-4-yl-5-(2-fluoro-phenyl)-1H-pyrazol-4-ylmethyl]piperazin-1-yl}-1-pyrrolidin-1-ylethanone]	122 nM
OCCN1CCN(Cc2cnn(-c3ccc(-c4ccccc4)cc3)c2-c2ccccc2F)CC1 [Example 1032, 2-{4-[1-Biphenyl-4-yl-5-(2-fluoro-phenyl)-1H-pyrazol-4-ylmethyl]piperazin-1-yl}ethanol]	280 nM
CN1CCN(Cc2cnn(-c3ccc(-c4ccc(F)cc4)cc3)c2-c2cccc(F)c2)CC1 [Example 911, 1-[1-(4′-Fluorobiphenyl-4-yl)-5-(3-fluoro-phenyl)-1H-pyrazol-4-ylmethyl]-4-methyl-piperazine]	19 nM
Fc1ccccc1-c1c(CNC2CCN(Cc3ccccc3)C2)cnn1-c1ccc(-c2ccccc2)cc1 (stereo not shown) [Example 1036, (1-Benzylpyrrolidin-3-yl)-[1-biphenyl-4-yl-5-(2-fluorophenyl)-1H-pyrazol-4-ylmethyl]amine]	310 nM

Same assay, conditions: target not given; description names affinity to 5-HT2A receptors; read-out: IC50

Structure (SMILES)	IC50
Fc1ccc(-c2ccc(-n3ncc(CN4CCOCC4)c3-c3ccccc3F)cc2)cc1 [(61), 4-[1-(4′-Fluorobiphenyl-4-yl)-5-(2-fluorophenyl)-1H-pyrazol-4-ylmethyl]morpholine]	520 nM
Fc1ccccc1-c1cc(CN2CCOCC2)nn1-c1ccc(-c2ccccc2)cc1 [(44), 4-[1-Biphenyl-4-yl-5-(2-fluorophenyl)-1H-pyrazol-3-ylmethyl]-morpholine]	1100 nM
CN1CCC(N(C)Cc2cnn(-c3ccc(-c4ccc(F)cc4)nc3)c2-c2ccccc2F)CC1 [(143), {5-(2-Fluorophenyl)-1-[6-(4-fluorophenyl)pyridin-3-yl]-1H-pyrazol-4-ylmethyl}methyl-(1-methylpiperidin-4-yl)amine]	250 nM
Cc1nn(C)c(C)c1NCc1cnn(-c2ccc(-c3ccccc3)cc2)c1-c1ccccc1F [(187), [1-Biphenyl-4-yl-5-(2-fluorophenyl)-1H-pyrazol-4-ylmethyl]-(1,3,5-trimethyl-1H-pyrazol-4-yl)amine]	590 nM
CS(=O)(=O)N1CCN(Cc2cnn(-c3ccc(-c4ccccc4)cc3)c2-c2ccccc2F)CC1 [(123), 1-[1-Biphenyl-4-yl-5-(2-fluorophenyl)-1H-pyrazol-4-ylmethyl]-4-methanesulfonylpiperazine]	830 nM
CC(C)(C)OC(=O)N1CC2C(C1)C2NCc1cnn(-c2ccc(-c3ccccc3)cc2)c1-c1ccccc1F (stereo not shown) [(190), tert-Butyl 6-{[1-biphenyl-4-yl-5-(2-fluorophenyl)-1H-pyrazol-4-ylmethyl]amino}-3-azabicyclo[3.1.0]hexane-3-carboxylate]	520 nM
Fc1ccccc1-c1c(CN2CC=CCC2)cnn1-c1ccc(-c2ccccc2)cc1 [(38), 1-[1-Biphenyl-4-yl-5-(2-fluorophenyl)-1H-pyrazol-4-ylmethyl]-1,2,3,6-tetrahydropyridine]	170 nM
C=CCC(O)c1cnn(-c2ccc(-c3ccccc3)cc2)c1-c1ccccc1F (stereo not shown) [(150), 1-[1-Biphenyl-4-yl-5-(2-fluorophenyl)-1H-pyrazol-4-yl]-but-3-en-1-ol]	1300 nM
NCc1cnn(-c2ccc(-c3ccccc3)cc2)c1-c1ccccc1 [(165), C-(1-Biphenyl-4-yl-5-phenyl-1H-pyrazol-4-yl)methylamine]	21 nM
CN1CCN(Cc2cnn(-c3ccc(C(F)(F)F)cc3)c2-c2ccccc2F)CC1 [(87), 1-[5-(2-Fluorophenyl)-1-(4-trifluoromethylphenyl)-1H-pyrazol-4-ylmethyl]-4-methylpiperazine]	160 nM
Fc1ccccc1-c1c(CCN2CCOCC2)cnn1-c1ccc(-c2ccccc2)cc1 [(42), 4-{2-[1-Biphenyl-4-yl-5-(2-fluorophenyl)-1H-pyrazol-4-yl]ethyl}morpholine]	12 nM
Fc1ccccc1-c1c(CN2CCNCC2)cnn1-c1ccc(-c2ccccc2)cc1 [(55), 1-[1-Biphenyl-4-yl-5-(2-fluorophenyl)-1H-pyrazol-4-ylmethyl]-piperazine]	26 nM
